For series [1], the system named is SARS-CoV-2 subgenomic replicon. It counts as cell-based. The note with it: Vero E6-TMPRSS2 cells, 24 h.
The subject of series [2] is A549-ACE2 cells. It counts as cell-based. The settings on record: 5 μM, 24 hours.
For series [3], the system named is SARS-CoV-2. The series can be described thus: Time-of-addition experiment in Calu-3 cells, plaque assay. It counts as cell-based.
The conditions of series [4]: cited from earlier work.
The test system of series [5] is A549-ACE2 cells. It counts as cell-based.

Here are results for 2 compounds from paper PMC12246422 (Nature Communications, 2025).

Consider `Cc1cccc(/C=N/Nc2cc(N3CCOCC3)nc(OCCc3ccccn3)n2)c1` [Apilimod], for which the “viral RNA replication, subgenomic replicon” value in series [1] is on record as “dose-dependently increased viral RNA replication”. Also, the “morphology of A549-ACE2 cells expressing 2xFYVE PI3P marker” value in series [2] is “cytosolic vacuolation and swelling of membrane structures”. Further, the time-of-addition profile result in series [3] is listed as “suppressed SARS-CoV-2 replication when added during the first two hpi, but not at later time points”. In addition, the pharmacokinetic profile entry in series [4] was “suboptimal pharmacokinetic profile”.
As to `CCN(CC)CCCC(C)Nc1ccnc2cc(Cl)ccc12` (centres unmarked) [chloroquine], in series [5], the “autolysosome number and autolysosome-to-autophagosome ratio relative to DMSO” value was “moderately reduced”.
